Values quoted from earlier work, collected in patent US12138351B2, “Pharmaceutical composition for oral administration comprising aminopyrimidine derivative or pharmaceutically acceptable salt, hydrate, or solvate thereof” (Janssen Biotech, Inc., priority 2020, dated 2024).
Read-outs that look alike come from different tables or passages of the source.

How the values were obtained:
[1] = compared to the compound in the form of free-base
[2] = system: T790M single active mutation (EGFRm) and double mutation; settings: known irreversible EGFR TKI
wild-type EGFR = wild-type EGFR (Homo sapiens, UniProt P00533); settings: known irreversible EGFR TKI
wild-type EGFR, sequence (P00533 25-1210): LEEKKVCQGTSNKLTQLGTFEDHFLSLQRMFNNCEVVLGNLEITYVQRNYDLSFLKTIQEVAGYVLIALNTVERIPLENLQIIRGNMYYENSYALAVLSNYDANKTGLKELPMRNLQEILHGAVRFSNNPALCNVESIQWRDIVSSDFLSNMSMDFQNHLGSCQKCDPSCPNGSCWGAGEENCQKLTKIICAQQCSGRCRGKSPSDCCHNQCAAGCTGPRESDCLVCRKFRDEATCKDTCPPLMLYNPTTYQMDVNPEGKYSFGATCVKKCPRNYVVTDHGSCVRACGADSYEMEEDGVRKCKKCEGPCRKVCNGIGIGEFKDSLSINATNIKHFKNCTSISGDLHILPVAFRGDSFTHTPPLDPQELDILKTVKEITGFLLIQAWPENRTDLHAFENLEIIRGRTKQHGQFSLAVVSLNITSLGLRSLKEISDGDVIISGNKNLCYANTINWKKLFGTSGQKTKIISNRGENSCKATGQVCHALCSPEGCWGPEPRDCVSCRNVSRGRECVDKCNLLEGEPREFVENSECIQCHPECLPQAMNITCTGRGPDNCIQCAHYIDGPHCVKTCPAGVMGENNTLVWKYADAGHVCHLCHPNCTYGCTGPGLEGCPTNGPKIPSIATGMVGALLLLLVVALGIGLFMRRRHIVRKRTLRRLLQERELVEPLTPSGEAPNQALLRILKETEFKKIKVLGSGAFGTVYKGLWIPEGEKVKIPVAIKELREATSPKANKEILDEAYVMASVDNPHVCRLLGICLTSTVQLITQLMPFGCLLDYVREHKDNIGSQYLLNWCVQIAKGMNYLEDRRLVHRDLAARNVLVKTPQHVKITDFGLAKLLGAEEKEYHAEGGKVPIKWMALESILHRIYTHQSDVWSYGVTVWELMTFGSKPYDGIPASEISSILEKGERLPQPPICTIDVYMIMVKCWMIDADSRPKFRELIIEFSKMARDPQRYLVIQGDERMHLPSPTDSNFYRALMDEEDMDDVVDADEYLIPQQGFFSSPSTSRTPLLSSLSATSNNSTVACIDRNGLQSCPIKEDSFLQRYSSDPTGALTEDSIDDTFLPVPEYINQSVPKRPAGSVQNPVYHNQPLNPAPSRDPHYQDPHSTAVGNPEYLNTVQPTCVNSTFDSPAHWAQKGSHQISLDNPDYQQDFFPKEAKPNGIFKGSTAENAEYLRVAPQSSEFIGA

Compound	stability [1]	bioavailability (co-administration with, e.g., an antacid, as well as administration alone)	bioavailability (compared to the compound in the form of free-base)	inhibitory activity on T790M single active mutation (EGFRm) and double mutation [2]	effect on wild-type EGFR (wild-type EGFR)
N-(5-(4-(4-((dimethylamino)methyl)-3-phenyl-1H-pyrazol-1-yl)pirimidine-2-ylamino)-4-methoxy-2-morpholinophenyl)acrylamide mesylate [Lazertinib mesylate]	excellent	excellent bioavailability	excellent		
C=CC(=O)Nc1cc(Nc2nccc(-n3cc(CN(C)C)c(-c4ccccc4)n3)n2)c(OC)cc1N1CCOCC1 [Lazertinib, N-(5-(4-(4-((dimethylamino)methyl)-3-phenyl-1H-pyrazol-1-yl)pirimidine-2-ylamino)-4-methoxy-2-morpholinophenyl)acrylamide]				strong inhibitory activity	less effect
